pIC50: −log10 of the molar value.
Key:
[1] = target: T1, SPAK (Homo sapiens, UniProt Q9UEW8); test: In vitro SPAK ELISA assay monitoring NKCC1 phosphorylation (T^PNKCC1 antibody); format: biochemical; settings: analogues of (6a)
T1 construct: GST (N, cleaved yes); made in house; host or cells: E. coli EcAR7 with Sep-OTS
Experimental: The GlaxoSmithKline published kinase inhibitor set, PKIS (Dranchak, et al., 2013, Plos One 8), was used to evaluate potential SPAK drug inhibitor candidates. The pilot inhibitor screen tested the capability of 320 compounds to inhibit the kinase activity of purified co-expressed SP382 WNK1 (1-661)/WT SPAK using an ELISA based screen monitoring a reduction in NKCC1 phosphorylation with the NKCC1 phospho-specific antibody, T^PNKCC1. 10 nL of each inhibitor compound (final concentration 20 μM) or DMSO vehicle controls were added to dry 384 well-flat bottom low volume non-binding assay plates (Corning) using an Echo 550 Acoustic dispenser (Labcyte). […] The assay plates were centrifuged at 200 g for 1 min, then incubated at RT for 30 min. Following inhibitor incubation, the kinase reaction was initiated with 1 μL of 50 μM ATP (final concentration 10 uM) or 1 μL of Kinase reaction buffer for negative controls and reacted for 1 hr at 37° C. The reaction was then quenched with 5 μL Kinase Stop buffer (100 mM Tris pH 8, 300 mM NaCl, 40 mM EDTA) and incubated for 1 min with shaking at 450 rpm. 2 μL of each quenched reaction was added to 18 μL TBS (50 mM Tris pH 8, 150 mM NaCl) in white 384-well Nunc Maxisorp plates (Thermo Scientific) using a PlateMate Plus (Thermo Scientific). The plate was shaken for 1 min at 450 rpm, sealed and incubated at 4° C. overnight to allow the protein contents of the reaction to bind to the Maxisorp plate. The next morning the solution was removed, and the plates were then subjected to 3 washes in TBST (50 mM Tris pH 7.5, 150 mM NaCl. 0.05% Tween 20) for 5 min each wash with shaking at 400 rpm. The plates were blocked with TBST buffer containing 3% BSA (w/v) at RT for 2 hrs at RT. The blocking buffer was removed, and the plates were immunoblotted with 1:50,000 dilution of T^PNKCC1 in blocking buffer for 2 hrs at RT. The plates were then subjected to 3 washes in TBST for 5 min each wash with shaking at 400 rpm, followed by incubating with 1:10,000 dilution of 2° DAR-HPR antibody in blocking buffer for 1 hr at RT. The plates were washed again 3 times in TBST for 5 min each wash with shaking at 400 rpm. Signal was detected by SuperSignal ELISA Pico Chemiluminescent substrate (ThermoScientific), and read on an EnVision multi-label plate reader (Perkin-Elmer).

[2] = tested on: GBM612 cells; test: On target activity in GBM612 cells (Western blot); format: cell-based, human; settings: on target activity in GBM cells
[3] = target: T1, SPAK; test: In vitro SPAK ELISA assay monitoring NKCC1 phosphorylation (T^PNKCC1 antibody); format: biochemical; settings: on target activity in vitro; read-out: IC50 In vitro
[4] = tested on: pancreatic cancer cells; test: Pancreatic cancer cell migration in vitro; format: cell-based; settings: FIG. 36
[5] = tested on: NKCC1 phosphorylation in mDCT15 cells; test: NKCC1 phosphorylation in mDCT15 cell lysates (T^PNKCC1 immunoblot); format: cell-based, mouse; settings: 40 μM, span of 4 hrs
Experimental: Mouse distal convoluted tubule (mDCT15) cells (Naguro, et al., 2012, Nature comm. 3:1285) were cultured in DMEM/Ham's F-12 media supplemented with 1% PSN and 5% FBS. Before each set of experiments 2×10^5 cells/well were plated in 24-well plates treated with 100 ug/mL poly-D-lysine and grown at 37° C. in 5% CO2 to ˜95% confluency. […] […] […] All media was removed and 100 μL of cell culture lysis buffer (100 mM Tris/HCl pH 7.4, 300 mM NaCl, 5 mM EDTA, 5 mM EGTA, 2 mM DTT, 10% glycerol, 2% triton X-100, Roche protease inhibitor, and phosphatase inhibitor cocktail 3 (Sigma-Aldrich St. Louis, MO)) was added to each well, transferred to a clean 1.5 mL Eppendorf tube, and incubated on ice for a minimum of 10 min. The cell lysates were centrifuged at 21,000 G for 10 min. The clarified lysate was stored at −80° C.
Protein samples were subjected to electrophoresis on polyacrylamide gels and transferred to PVDF membranes. The membranes were incubated overnight in TBST blocking buffer containing 5% milk (w/v) (for the antibodies raised in sheep) or 3% BSA (w/v) (for all other antibodies). […] Signal was detected by enhanced chemiluminescence (Bio-rad) imaged on a ChemiDoc™ XRS+ CCD camera.

[6] = tested on: mDCT15 cells; test: Cell volume of mDCT15 cells by microscopic imaging; format: cell-based, mouse; settings: 40 μM, four-hour time course
Experimental: FIGS. 12A-12F illustrate the finding that (7a) depletes phosphorylated NKCC1 and reduces cell volume in mDCT15 cells. FIG. 12A: Structures of (7a) and analog (7b). FIG. 12B: In vitro dose-dependent inhibition comparing (7a) and (7b) evaluated by western blot using T^PNKCC1. FIG. 12C: Western blot analysis of NKCC1 phospho-depletion in mDCT15 cells under various conditions. FIG. 12D: mDCT15 cells were incubated with 40 μM (7a), 40 μM Cabozantinib (XL-184), or equivalent volume of DMSO vehicle for 1 hr, 2 hr, 3 hr, and 4 hr. NKCC1 phosphorylation was monitored using the T^PNKCC1 antibody and compared to total NKCC1. FIG. 12E: HEK 293 induced to express KCC were incubated with 40 μM (7a), 40 μM Cabozantinib (XL-184), or equivalent volume of DMSO vehicle for 1 hr, and 2 hr time points. KCC phosphorylation was monitored using the T^PKCC antibody and compared to total KCC using C-Myc antibody. FIG. 12F: mDCT15 cells were incubated with 40 μM (7a), 40 μM Cabozantinib (XL-184), or equivalent volume of DMSO vehicle for a 1 hr, 2 hr, 3 hr, and 4 hr time course. After incubation the cells were imaged using 20× bright field microscopy. 1 hr and 4 hr time points are shown.
FIG. 13 comprises images of mDCT15 cells incubated with 40 μM (7a) 40 μM, Cabozantinib (XL-184), or equivalent volume of DMSO vehicle for a 1 hr, 2 hr, 3 hr, and 4 hr time course (partially shown in FIG. 12F). […]

SMILES | SPAK inhibition [1] | Activity in GMB612, 0.2 μM [2] | Activity in GMB612, 2 μM [2] | pIC50 [3] | pancreatic cancer cell migration [4] | NKCC1 phosphorylation over time without osmotic triggers [5] | Cell volume change, mDCT15 cells [6]
COc1ccc(Nc2ncc(C#N)c(Nc3cccc4c3C(=O)NC4)n2)cc1N1CCN(C)CC1 [(6b)] | measurable SPAK inhibition | Yes | Yes | 7.30 |  |  | 
COc1ccc(Nc2ncc(C#N)c(Nc3ccccc3-c3ncco3)n2)cc1N1CCN(C)CC1 [(6c), 2-((4-methoxy-3-(4-methylpiperazin-1-yl)phenyl)amino)-4-((2-(oxazol-2-yl)phenyl)amino)pyrimidine-5-carbonitrile] |  | No | No | 5.05 |  |  | 
CNC(=O)c1ccccc1Nc1nc(Nc2ccc(OC)c(N3CCN(C)CC3)c2)ncc1C#N [(6d), 2-((5-cyano-2-((4-methoxy-3-(4-methylpiperazin-1-yl)phenyl)amino)pyrimidin-4-yl)amino)-N-methylbenzamide] | measurable SPAK inhibition | No | Yes | 5.28 |  |  | 
CONC(=O)c1ccccc1Nc1nc(Nc2ccc(OC)c(N3CCN(C)CC3)c2)ncc1C#N [(6e), 2-((5-cyano-2-((4-methoxy-3-(4-methylpiperazin-1-yl)phenyl)amino)pyrimidin-4-yl)amino)-N-methoxybenzamide] | measurable SPAK inhibition | No | Yes | 5.59 |  |  | 
COc1ccc(Nc2ncc(C#N)c(Nc3ccccc3-c3nnn[nH]3)n2)cc1N1CCN(C)CC1 [(6f), 4-((2-(1H-tetrazol-5-yl)phenyl)amino)-2-((4-methoxy-3-(4-methylpiperazin-1-yl)phenyl)amino)pyrimidine-5-carbonitrile] | measurable SPAK inhibition | No | Yes | 5.46 |  |  | 
COc1ccc(Nc2ncc(C#N)c(Nc3ccccc3-c3nc[nH]n3)n2)cc1N1CCN(C)CC1 [(6g), 4-((2-(1H-1,2,4-triazol-3-yl)phenyl)amino)-2-((4-methoxy-3-(4-methylpiperazin-1-yl)phenyl)amino)pyrimidine-5-carbonitrile] |  | No | No | 4.92 |  |  | 
Nc1ccn([C@@H]2O[C@H](CO)[C@@H](O)C2(F)F)c(=O)n1 [Gemcitabine, reference compound] |  |  |  |  | does not |  | 
COc1cc2nccc(Oc3ccc(NC(=O)C4(C(=O)Nc5ccc(F)cc5)CC4)cc3)c2cc1OC [XL-184, Cabozantinib malate] |  |  |  |  |  | no discernable effect on NKCC1 phosphorylation | neither XL-184 nor Vehicle had any detectable change

— patent US12643891B2, “SPAK/OSR inhibitors and methods of using same” (YALE UNIVERSITY, priority 2019, dated 2026)
